Here are results for 8 molecules from patent US20100292216A1, “Methods and Compositions for the Treatment of Psychiatric Conditions” (ADAMAS PHARMACEUTICALS, INC., priority 2004, published 2010).

For data set [1] the following is noted: cited from earlier work; for Human PK T 1/2 / Tmax: parent drug.
For data set [2] the following is noted: humans; cited from earlier work.
For data set [3] the following is noted: IR administration; memantine 10 mg bid, duloxetine 60 mg qd; cited from earlier work.
Data set [4] concerns depression model (forced swim test (FST)). Nature of the data set: Dose ranging study in depression model (forced swim test). It counts as in vivo. The text has this:
An isobolic experiment ensues where the drugs are combined in fractions of their EDXXs to add up to ED100 (i.e., ED50:ED50, ED25:ED75, etc.). The plot of the data is constructed. The experiment points that lie below the straight line between the ED50 points on the graph are indicative of synergy, points on the line are indicative of additive effects, and points above the line are indicative of inhibitory effects. The point of maximum deviation from the isobolic line is the optimal ratio. […] Similar protocols may be applied in a wide variety of validated animal models.

Entries after “also recorded” stand apart in the source; their conditions may differ. Like-named read-outs stand apart in the source and are kept apart here.

One may read the Tmax as the time at which the peak concentration occurs. For `O=C1CC2(CCCC2)CC(=O)N1CCCCN1CCN(c2ncccn2)CC1` [BUSPAR/Buspirone, buspirone], in data set [1] (humans), the “Human PK T 1/2” value was 7 h and the “Tmax” value was 1 h. Further, the “Main Dose Dependent Adverse Event” value in data set [2] is “Drowsiness, dizziness”.

For `CNCC[C@H](Oc1cccc2ccccc12)c1cccs1` [CYMBALTA/Duloxetine, duloxetine], in data set [1] (humans), the “Human PK T 1/2” value was 12 h and the “Tmax” value is 6 h. Further, in data set [3], the Tmax is 6 h and the T½ is 12 h. Moreover, in data set [2], the “Main Dose Dependent Adverse Event” value was “Dizziness”.

Take `CC(NC(C)(C)C)C(=O)c1cccc(Cl)c1` (stereo not shown) [WELLBUTRIN/Bupropion, bupropion]: in data set [1] (humans), the “Human PK T 1/2” value is 14 h and the “Tmax” value is 2 h. Moreover, the “Main Dose Dependent Adverse Event” value in data set [2] is “Anorexia, constipation,; also recorded: seizures (Bold Warning)”.

Take `CNCCCN1c2ccccc2CCc2ccccc21` [NORPRAMIN/Desipramine, desipramine]: in data set [1] (humans), the “Human PK T 1/2” value was 22 h and the “Tmax” value was 3 to 6 h. Besides, the “Main Dose Dependent Adverse Event” value in data set [2] is “Hypotension, urinary; also recorded: retention, QTC”.

As for `CC12CC3CC(C)(C1)CC(N)(C3)C2` [Memantine, 1-amino-3,5-dimethyladamantane], the Tmax in data set [3] is 3 h. For the same molecule, the ED50 result in data set [4] was “approximately 15 μM”. Moreover, in data set [2], the “Dose Dependent Tox” value is on record as “required, hallucination”.

Turning to `CN(C)CCC[C@@]1(c2ccc(F)cc2)OCc2cc(C#N)ccc21` [LEXAPRO/Escitalopram, escitalopram], the “Tmax” value in data set [1] (humans) was 5 h. Besides, in data set [2], the “Main Dose Dependent Adverse Event” value was “Sexual dys”.

As to `Fc1ccc([C@@H]2CCNC[C@H]2COc2ccc3c(c2)OCO3)cc1` [PAXIL/Paroxetine, paroxetine], in data set [1] (head of release table, Example 3), the T½ result was “T½ = 21 hrs”. Also, in data set [1] (humans), the “Human PK T 1/2” value is 21 h and the “Tmax” value is 5 h. The “Main Dose Dependent Adverse Event” value in data set [2] is “Sexual dys”.

Take `COc1ccc(C(CN(C)C)C2(O)CCCCC2)cc1` (stereo not shown) [EFFEXOR/Venlafaxine, venlafaxine]: in data set [1] (humans, ODV), the “Human PK T 1/2 (hrs) for ODV” value is 11 h and the “Tmax (hrs) for ODV” value was 3 h. In data set [1] (humans), the “Human PK T 1/2” value is 5 h and the “Tmax” value is 2 h. For the same molecule, in data set [2], the “Main Dose Dependent Adverse Event” value is recorded as “nausea, constipation,; also recorded: anorexia, vomiting,; also recorded: somnolence,”.
